Usually IC50 stands for the concentration that gives 50% inhibition.

The record followed here is patent publication US10398663B2, “Mitochondrial delivery of 3-bromopyruvate” (priority 2014, dated 2019).

Common to all, as to type: cell-based, Human
The subject of assay [1] is PC3 cells. Kind of assay: Bioenergetic assay (Seahorse XF24, ECAR and OCR). As to conditions: 10 μM with respect to 3-BP, 6 h. The method, then:
Prior to the assay, XF sensor cartridges were hydrated. To each well of an XF utility plate, 1 mL of Seahorse Bioscience calibrant was added and the XF sensor cartridges were placed on top of the utility plate, and kept at 37° C. incubator without CO2 for a minimum of 12 h. PC3 cells were cultured in XF24-well cell culture microplates (Seahorse Bioscience) at a density of 5×10^4 cells/well (0.32 cm2) in 200 μL growth medium and then incubated for 24 h at 37° C. in 5% CO2 atmosphere. The three key parameters of glycolytic function: glycolysis, glycolytic capacity, and glycolytic reserve were assessed using a Seahorse XF glycolysis stress kit. After the cells were attached, an additional 100 μL growth medium was added and the cells were incubated for 24 h at 37° C. in 5% CO2 atmosphere. […] The OCR and the ECAR were measured simultaneously for 16 min to establish a baseline rate. Glycolysis, glycolytic capacity, and glycolytic reserve were calculated by subtracting the average rates before and after the addition of glucose (10 mM), ATP synthase inhibitor oligomycin (1.0 μM), and 2-deoxy-D-glucose (2-DG) (100 mM). These three compounds were injected consecutively with specific time gap and ECAR values were measured after each injection. […]

The subject of assay [2] is PC3 cells. Put plainly: MTT assay, PC3 cells. As to conditions: with respect to 3-BP, 72 h. The method, then:
(§1) Human prostate cancer PC3, DU145 cells and RAW 264.7 macrophages were procured from the American type culture collection (ATCC). DU145 cells were grown at 37° C. in 5% CO2 in Eagle's minimum essential medium (EMEM) supplemented with 10% fetal bovine serum (FBS) and 1% penicillin/streptomycin. PC3 cells were grown in Roswell Park Memorial Institute (RPMI) 1640 medium supplemented with 10% FBS and 1% penicillin/streptomycin. RAW 264.7 macrophages were cultured in RPMI media supplemented with 10% FBS and 1% penicillin/streptomycin. Cells were passed every 3 to 4 days and restarted from frozen stocks upon reaching pass number 20.
(§2) Cytotoxicity profiles of T-AuNPs, NT-AuNPs, T-3-BPAuNPs, NT-3-BP-AuNPs, and 3-BP were studied using the MTT assay against prostate cancer PC3 and DU145 cell lines. Cells (2000 cells/well) were seeded on a 96-well plate in 100 μL of desired medium and incubated for 24 h. The cells were then treated with different constructs at varying concentrations and incubated for 12 h at 37° C. and the media was changed. […] The medium was removed, the cells were lysed with 100 μL of DMSO, and the absorbance of the purple formazan was recorded at 550 nm using a Bio-Tek Synergy HT microplate reader and background absorbance was measured at 800 nm. […] Cytotoxicity was expressed as mean percentage […] relative to the unexposed control±standard deviation (SD). […]

The test system of assay [3] is PC3 cells. Kind of assay: Apoptosis detection by flow cytometry (Annexin V-PI). To be noted: 6 h, dark. The method, then:
PC3 cells were plated at a density of 1×10^6 cells/mL and allowed to grow for 14 h. Media was changed and cells were treated with T-AuNP (1 mg/mL), NT-AuNP (1 mg/mL), T-3-BP-AuNP (14.1 μg/mL with respect to NP, 10 μM with respect to 3-BP), NT-3-BP-AuNP (13.7 μg/mL with respect to NP, 10 μM with respect to 3-BP), free 3-BP (10 μM or 1 mM) for 6 h at 37° C. As positive controls, etoposide (100 μM, incubation time: 12 h) for apoptosis and H2O2 (1 mM, incubation time: 45 min) for necrosis were used. For apoptosis detection after laser treatment, cells were treated with T-AuNP (1 mg/mL), NT-AuNP (1 mg/mL), T-3-BP-AuNP (14.1 μg/mL with respect to NP, 10 μM with respect to 3-BP), NT-3-BP-AuNP (13.7 μg/mL with respect to NP, 10 μM with respect to 3-BP), free 3-BP (10 μM) for 4 h at 37° C., irradiated with laser of 660 nm for 1 min, and further incubated for 12 h. […] Cells were counted and resuspended in 1× annexinbinding buffer at a density of ˜1×10^6 cells/mL preparing a sufficient volume to have 100 μL per assay. To 100 μL of cell suspension, 5 μL Alexa Fluor® 488 annexin V and 1 μL 100 μg/mL PI working solution were added, incubated for 15 min at room temperature, followed by addition of 400 μL 1× annexin-binding buffer, gently mixing in ice, and the samples were analyzed on the flow cytometer immediately.
(In general: In flow cytometry, cells or beads pass a laser one at a time.)

In assay [4] the test system is PC3 cells. Kind of assay: CellTiter-Glo luminescent ATP quantification. As to conditions: 10 μM with respect to 3-BP, 6 h. The method, then:
PC3 cells were seeded at a density of 1×10^6 cells/mL in a 12 well plate and allowed to grow for 12 h at 37° C. under 5% CO2. Cells were treated with T-AuNP (1 mg/mL), NT-AuNP (1 mg/mL), T-3-BP-AuNP (14.1 μg/mL with respect to NP, 10 μM with respect to 3-BP), NT-3-BP-AuNP (13.7 μg/mL with respect to NP, 10 μM with respect to 3-BP), free 3-BP (10 μM) for 6 h at 37° C. in 5% CO2 atmosphere. Control wells containing medium without cells were used to obtain background luminescence value. Plates were then equilibrated at room temperature for ˜30 min. A volume of CellTiter-Glo reagent equal to the volume of cell culture medium present in each well was added, this mixtures were mixed for 2 min in a shaker to induce cell lysis. The plates were incubated at room temperature for additional 10 min to stabilize luminescent signal. Luminescence was recorded using a plate reader. ATP quantification was carried out from a standard curve using ATP disodium salt hydrate.
(In general: Cellular ATP, detected with luciferase, serves as a proxy for viable cell number.)

For assay [5], the system named is DU145 cells. Put plainly: MTT assay, DU145 cells. As to conditions: with respect to 3-BP, 72 h. The method, then:
as §1, §2
A general note: Formazan colour is commonly taken as a measure of viable cells.

In assay [6] the test system is PC3 cells. Put plainly: Lactate determination. As to conditions: 10 μM with respect to 3-BP, 6 h. The method, then:
PC3 cells were seeded at a density of 1×10^6 cells/mL and allowed to grow for 12 h at 37° C. under 5% CO2. Cells were treated with T-AuNP (1 mg/mL), NT-AuNP (1 mg/mL), T-3-BP-AuNP (14.1 μg/mL with respect to NP, 10 μM with respect to 3-BP), NT-3-BP-AuNP (13.7 μg/mL with respect to NP, 10 μM with respect to 3-BP), free 3-BP (10 μM) for 6 h at 37° C. After 6 h, the media was removed and the cells were homogenized. The lysate and the media supernatant were added to the enzyme and substrate working reagent mixture and incubated for 30 min. Lactate concentration was measured using Bio-Tek Synergy HT microplate reader at 450 nm and comparing to a standard curve.

Take `O=C(O)C(=O)CBr` [3-BP, 3-bromopyruvate]: the “glycolysis inhibition (ECAR response to glucose)” value in assay [1] is recorded as “did not show any glycolysis inhibitory effect”. For the same compound, the 50% inhibitory concentration (IC50) turned out to be 271 ± 9 µM in assay [2] and 541 ± 37 µM in assay [5]. Moreover, the apoptotic activity result in assay [3] (10 μM) was “unable to show any apoptotic activity”; in assay [3] (1 mM) it was “significant apoptosis”. Further, the “level of ATP” value in assay [4] is reported as “decrease”. Also, the extracellular lactate level result in assay [6] is recorded as “declined”. The intracellular lactate level entry in assay [6] is listed as “declined”.
